The values that follow come from patent US9650379B2 (CHONG KUN DANG PHARMACEUTICAL CORP., priority 2013, dated 2017).

One assay deals with T1, HDAC1 (Homo sapiens, UniProt Q13547).
T1 construct: purchased Enzolifesciences BML-AK511
In words: Inhibition of HDAC1 activity (HDAC1 fluorimetric drug discovery assay kit). To be noted: test concentrations 100, 1000 and 10000 nM; 37° C., 60 minutes. The assay is classed as biochemical. Summed up:
(§1)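 HDAC1 tested with the kit assay mixture at 100, 1000 and 10000 nM compound; recombinant human HDAC6 at 0.1, 1, 10, 100 and 1000 nM. Reaction ran 60 min at 37° C, then developer was added for 30 min at 37° C and fluorescence quantified.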

The target in a further assay is T2, HDAC6 human recombinant (Homo sapiens, UniProt Q9UBN7).
T2 construct: purchased Calbiochem 382180
T2 sequence (Q9UBN7 1-1215): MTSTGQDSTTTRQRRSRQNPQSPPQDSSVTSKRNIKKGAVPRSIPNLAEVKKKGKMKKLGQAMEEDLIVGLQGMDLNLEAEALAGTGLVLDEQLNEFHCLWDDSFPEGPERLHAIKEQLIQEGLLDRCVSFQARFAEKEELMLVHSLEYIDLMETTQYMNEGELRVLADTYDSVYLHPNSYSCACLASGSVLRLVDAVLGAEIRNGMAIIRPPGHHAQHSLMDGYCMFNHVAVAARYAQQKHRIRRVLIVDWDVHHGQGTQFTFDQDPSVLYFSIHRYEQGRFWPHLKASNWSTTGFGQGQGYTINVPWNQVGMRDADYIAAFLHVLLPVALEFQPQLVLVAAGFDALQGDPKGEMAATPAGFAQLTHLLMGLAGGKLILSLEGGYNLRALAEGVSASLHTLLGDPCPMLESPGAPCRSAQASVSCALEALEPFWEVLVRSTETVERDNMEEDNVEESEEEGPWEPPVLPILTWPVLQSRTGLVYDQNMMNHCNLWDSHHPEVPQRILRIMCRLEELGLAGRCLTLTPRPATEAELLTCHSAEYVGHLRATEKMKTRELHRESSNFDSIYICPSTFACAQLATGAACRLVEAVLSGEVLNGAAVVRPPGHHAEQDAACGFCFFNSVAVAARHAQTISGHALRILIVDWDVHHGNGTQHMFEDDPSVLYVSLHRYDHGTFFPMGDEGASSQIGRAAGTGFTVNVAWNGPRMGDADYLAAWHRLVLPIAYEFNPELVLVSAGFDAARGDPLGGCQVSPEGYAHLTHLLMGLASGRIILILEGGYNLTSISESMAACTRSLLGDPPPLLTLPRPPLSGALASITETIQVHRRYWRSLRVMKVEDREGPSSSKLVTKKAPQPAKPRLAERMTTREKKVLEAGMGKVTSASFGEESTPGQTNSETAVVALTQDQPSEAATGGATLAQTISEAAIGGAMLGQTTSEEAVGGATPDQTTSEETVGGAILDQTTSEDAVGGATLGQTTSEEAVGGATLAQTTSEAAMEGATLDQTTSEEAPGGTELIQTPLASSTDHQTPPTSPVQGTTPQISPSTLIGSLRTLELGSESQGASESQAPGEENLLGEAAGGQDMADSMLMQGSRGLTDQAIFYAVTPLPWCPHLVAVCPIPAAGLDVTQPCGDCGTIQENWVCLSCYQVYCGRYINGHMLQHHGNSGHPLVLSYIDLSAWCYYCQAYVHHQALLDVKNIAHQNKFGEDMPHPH
In words: Inhibition of HDAC6 activity (fluorimetric assay). The class given is biochemical. The following applies: test concentrations 0.1, 1, 10, 100 and 1000 nM; 37° C., 60 minutes. The procedure, abridged:
as §1

As usually defined, the pIC50 is −log10 of the IC50, conventionally taken in molar units.

SMILES strings stand for the structures. pIC50: −log10 of the molar value.

T1 sequence (Q13547 whole entry): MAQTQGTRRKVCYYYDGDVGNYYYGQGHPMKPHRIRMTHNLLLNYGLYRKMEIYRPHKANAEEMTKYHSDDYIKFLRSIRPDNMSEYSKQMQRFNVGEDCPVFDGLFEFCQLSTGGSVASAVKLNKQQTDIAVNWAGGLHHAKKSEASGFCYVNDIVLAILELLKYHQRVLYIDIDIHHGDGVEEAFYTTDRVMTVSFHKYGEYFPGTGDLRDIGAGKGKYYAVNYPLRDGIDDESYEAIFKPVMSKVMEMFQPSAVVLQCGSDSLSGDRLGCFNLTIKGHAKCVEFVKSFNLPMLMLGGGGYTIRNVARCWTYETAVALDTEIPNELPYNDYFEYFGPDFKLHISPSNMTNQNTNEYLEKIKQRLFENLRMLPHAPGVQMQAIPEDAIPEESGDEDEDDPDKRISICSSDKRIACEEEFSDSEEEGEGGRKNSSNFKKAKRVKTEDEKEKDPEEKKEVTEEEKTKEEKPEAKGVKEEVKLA

As for `O=C(NO)c1ccc(Cn2ccc3cc(C4CCN(Cc5ccc(-c6ccco6)cc5)CC4)cnc32)cc1` [Compound 875, 4-((5-(1-(4-(furan-2-yl)benzyl)piperidin-4-yl)-1H-pyrrolo[2,3-b]pyridin-1-yl)methyl)-N-hydroxybenzamide], the pIC50 was 5.63 against HDAC1 and 7.49 at HDAC6 human recombinant.
For `O=C(NO)c1ccc(Cn2ccc3cc(C4CCN(S(=O)(=O)c5ccccc5)CC4)cnc32)cc1` [Compound 876, N-hydroxy-4-((5-(1-(phenylsulfonyl)piperidin-4-yl)-1H-pyrrolo[2,3-b]pyridin-1-yl)methyl)benzamide], in that order: 5.55 and 7.38.
Turning to `CN1CCN(Cc2ccc(CN3CCC(c4cnc5c(ccn5Cc5ccc(C(=O)NO)cc5)c4)CC3)cc2)CC1` [Compound 877, N-hydroxy-4-((5-(1-(4-((4-methylpiperazin-1-yl)methyl)benzyl)piperidin-4-yl)-1H-pyrrolo[2,3-b]pyridin-1-yl)methyl)benzamide], the pIC50 at HDAC1 is 6.11; on HDAC6 human recombinant, 8.06.
For `O=C(NO)c1ccc(Cn2ccc3cc(C4CCN(Cc5cccc(CN6CCOCC6)c5)CC4)cnc32)cc1` [Compound 878, N-hydroxy-4-((5-(1-(3-(morpholinomethyl)benzyl)piperidin-4-yl)-1H-pyrrolo[2,3-b]pyridin-1-yl)methyl)benzamide], in that order: 5.95 and 8.19.
For `CN1CCN(Cc2cccc(CN3CCC(c4cnc5c(ccn5Cc5ccc(C(=O)NO)cc5)c4)CC3)c2)CC1` [Compound 879, N-hydroxy-4-((5-(1-(3-((4-methylpiperazin-1-yl)methyl)benzyl)piperidin-4-yl)-1H-pyrrolo[2,3-b]pyridin-1-yl)methyl)benzamide] the same measures were 5.98 and 8.12.
For `O=C(NO)c1ccc(Cn2ccc3cc(C4CCN(Cc5cncnc5)CC4)cnc32)cc1` [Compound 880, N-hydroxy-4-((5-(1-(pyrimidin-5-ylmethyl)piperidin-4-yl)-1H-pyrrolo[2,3-b]pyridin-1-yl)methyl)benzamide] the same measures were 6.11 and 8.22.
Consider `O=C(NO)c1ccc(Cn2ccc3cc(C4CCN(Cc5ncccn5)CC4)cnc32)cc1` [Compound 881, N-hydroxy-4-((5-(1-(pyrimidin-2-ylmethyl)piperidin-4-yl)-1H-pyrrolo[2,3-b]pyridine-1-yl)methyl)benzamide], for which the negative-log IC50 (pIC50) was 6.07 against HDAC1 and 8.28 on HDAC6 human recombinant.
For `O=C(NO)c1ccc(Cn2ccc3cc(C4CCN(Cc5ccc(CN6CCOCC6)cc5)CC4)cnc32)cc1` [Compound 882, N-hydroxy-4-((5-(1-(4-(morpholinomethyl)benzyl)piperidin-4-yl)-1H-pyrrolo[2,3-b]pyridin-1-yl)methyl)benzamide], in that order: 5.94 and 8.12.
For `CN1CCN(c2ccccc2CN2CCC(c3cnc4c(ccn4Cc4ccc(C(=O)NO)cc4)c3)CC2)CC1` [Compound 883, N-hydroxy-4-((5-(1-(2-(4-methylpiperzin-1-yl)benzyl)piperidin-4-yl)-1H-pyrrolo[2,3-b]pyridin-1-yl)methyl)benzamide], in that order: 5.68 and 8.68.
For `O=C(NO)c1ccc(Cn2ccc3cc(C4CCN(C(=O)c5cccc(CN6CCOCC6)c5)CC4)cnc32)cc1` [Compound 895, N-hydroxy-4-((5-(1-(3-(morpholinomethyl)benzoyl)piperidin-4-yl)-1H-pyrrolo[2,3-b]pyridin-1-yl)methyl)benzamide] the same measures were 5.97 and 8.12.
Turning to `CN1CCN(Cc2cccc(C(=O)N3CCC(c4cnc5c(ccn5Cc5ccc(C(=O)NO)cc5)c4)CC3)c2)CC1` [Compound 896, N-hydroxy-4-((5-(1-(3-((4-methylpiperazin-1-yl)methyl)benzoyl)piperidin-4-yl)-1H-pyrrolo[2,3-b]pyridin-1-yl)methyl)benzamide], the pIC50 at HDAC1 is 6.10; on HDAC6 human recombinant, 8.07.
For `O=C(NO)c1ccc(Cn2ccc3cc(C4CCN(C(=O)c5ccc(CN6CCOCC6)cc5)CC4)cnc32)cc1` [Compound 897, N-hydroxy-4-((5-(1-(4-(morpholinomethyl)benzoyl)piperidin-4-yl)-1H-pyrrolo[2,3-b]pyridin-1-yl)methyl)benzamide] the same measures were 5.96 and 8.13.
As to `CN1CCN(Cc2ccc(C(=O)N3CCC(c4cnc5c(ccn5Cc5ccc(C(=O)NO)cc5)c4)CC3)cc2)CC1` [Compound 898, N-hydroxy-4-((5-(1-(4-((4-methylpiperazin-1-yl)methyl)benzoyl)piperidin-4-yl)-1H-pyrrolo[2,3-b]pyridin-1-yl)methyl)benzamide], the pIC50 on HDAC1 was 6.11; on HDAC6 human recombinant, 8.21.
For `O=C(O)CN1CCC(c2ccnc3c2ccn3Cc2ccc(C(=O)NO)cc2)CC1` [Compound 917, 2-(4-(1-(4-(hydroxycarbamoyl)benzyl)-1H-pyrrolo[2,3-b]pyridin-4-yl)piperidin-1-yl)acetic acid] the same measures were 6.11 and 8.24.
For the molecule `O=C(O)CCN1CCC(c2ccnc3c2ccn3Cc2ccc(C(=O)NO)cc2)CC1` [Compound 927, 3-(4-(1-(4-(hydroxycarbamoyl)benzyl)-1H-pyrrolo[2,3-b]pyridin-4-yl)piperidin-1-yl)propionic acid], the pIC50 at HDAC1 is 6.08; on HDAC6 human recombinant, 8.35.
For `CC(C)(O)CN1C2CCC1CC(c1ccnc3c1ccn3Cc1ccc(C(=O)NO)cc1)C2` (centres unmarked) [Compound 930, N-hydroxy-4-((4-(8-(2-hydroxy-2-methylpropyl)-8-aza-bicyclo[3.2.1]octan-3-yl)-1H-pyrrolo[2,3-b]pyridin-1-yl)methyl)benzamide] the same measures were 6.60 and 8.77.
Turning to `CC(O)(CO)CN1CCC(c2ccnc3c2ccn3Cc2ccc(C(=O)NO)cc2)CC1` (centres unmarked) [Compound 945, 4-((4-(1-(2,3-dihydroxy-2-methylpropyl)piperidin-4-yl)-1H-pyrrolo[2,3-b]pyridin-1-yl)methyl)-N-hydroxybenzamide], the pIC50 against HDAC1 is 6.70; at HDAC6 human recombinant it was 8.43.
For `CC(O)(CO)CN1CCC(c2cnc3c(ccn3Cc3ccc(C(=O)NO)cc3)c2)CC1` (centres unmarked) [Compound 946, 4-((5-(1-(2,3-dihydroxy-2-methylpropyl)piperidin-4-yl)-1H-pyrrolo[2,3-b]pyridin-1-yl)methyl)-N-hydroxybenzamide] the same measures were 6.31 and 8.70.
For `CC(C)(O)CN1CC2(CCN(c3cnc4c(ccn4Cc4ccc(C(=O)NO)cc4)c3)CC2)C1` [Compound 956, N-hydroxy-4-((5-(2-(2-hydroxy-2-methylpropyl)-2,7-diazaspiro[3.5]nanan-7-yl)-1H-pyrrolo[2,3-b]pyridin-1-yl)methyl)benzamide] the same measures were 6.08 and 8.43.
On to `O=C(NO)c1ccc(Cn2ccc3cc(N4CCC5(CC4)CN(Cc4cccnc4)C5)cnc32)cc1` [Compound 957, N-hydroxy-4-((5-(2-(pyridin-3-ylmethyl)-2,7-diazaspiro[3.5]nonan-7-yl)-1H-pyrrolo[2,3-b]pyridin-1-yl)methyl)benzamide], for which the negative logarithm of the IC50 (pIC50) was 6.19 at HDAC1 and 8.80 at HDAC6 human recombinant.
For `COc1ccc(CN2CCC(c3ccnc4c3ccn4Cc3ccc(C(=O)NO)cc3)CC2)cc1` [Compound 959, N-hydroxy-4-((4-(1-(4-methoxybenzyl)piperidin-4-yl)-1H-pyrrolo[2,3-b]pyridin-1-yl)methyl)benzamide], in that order: 6.05 and 7.92.
For `O=C(NO)c1ccc(Cn2ccc3c(C4CCN(Cc5ncccn5)CC4)ccnc32)cc1` [Compound 966, N-hydroxy-4-((4-(1-(pyrimidin-2-ylmethyl)piperidin-4-yl)-1H-pyrrolo[2,3-b]pyridin-1-yl)methyl)benzamide], in that order: 6.55 and 8.42.
